Source: patent publication US20120322812A1, “RUTAECARPINE DERIVATIVES FOR TREATING INSOMNIA” (priority 2011, published 2012)

Tested on: CYP1A2
Assay: MEROD assay in live Hepa1c1c7 cells preincubated with test compound (CYP1A2 induction)
Type: cell-based, mouse
Excerpt: FIG. 1 illustrates how caffeine is primarily metabolized to paraxanthine via CYP1A2 enzyme in a human, according to some embodiments. The MEROD (methoxyresorufin-O-demethylase) assay measures the activity of the enzyme (CYP1A2) that converts methoxyresorufin (probe substrate) to resorufin (demethylation) in the presence of NADPH. The resulting resorufin concentration can be measured using a fluorescence reader by setting the excitation and emission wavelengths at 544 and 590 nm, respectively.
For MEROD assay in live cells, Hepa1c1c7 cells were cultured in either 6-well or 24-well-plates. For the 24-well plate experiment, after confluent cells were incubated for approximately 20 hours with either resorufin, nitro-resorufin, chloro-resorufin, 3-MC or DMSO (in triplicates), culture media was removed and 180 μL fresh culture media containing […] methoxyresorufin was added per well. After 1 hour incubation at 37° C., 100 μL aliquot was taken from each well and the formation of resorufin was measured by fluorescence. […] After 5 hours incubation at 37° C., 100 μL aliquot was taken from each well, centrifuged at 12,000 g at RT for ˜5 min and the supernatants were placed into wells of a 96-well fluorescence plate and the formation of resorufin was measured by fluorescence.

formation of resorufin in live cells (MEROD assay) (Hepa1c1c7 cells incubated with 2 μM compound, compared to DMSO, 24-well and 6-well plate studies): significant difference | formation of resorufin in live cells (MEROD assay) (Hepa1c1c7 cells incubated with 10 μM compound): no marked difference
Compound: O=c1c2ccc(Cl)cc2nc2n1CCc1c-2[nH]c2ccccc12 [chloro-rutaecarpine]
